Source: patent US10544154B2, “Opioid receptor antagonist prodrugs” (Nirsum Laboratories, Inc., priority 2017, dated 2020)
“Also recorded” adds a separate entry of the source.

Test: Clinical observations for dogs in pharmacokinetic studies
Format: in vivo, Beagle dogs
Details: 48 mg/kg
Experimental: Weight monitoring was done every week.
The dose formulation (concentration—400 mg base equivalents/ml in sesame oil+1% benzyl alcohol, unless otherwise specified) was administered via deep intramuscularly (unless otherwise specified). The injection vehicle was also dosed via deep intramuscular route (unless otherwise specified) on contralateral site of each animal at study initiation. The animals were sedated with Propofol at 6 mg/kg via IV administration. Following sedation hair was carefully removed from around the injection site and the area gently cleaned. Care will be taken to avoid irritating skin during shaving and cleaning the injection site. Then dogs will be dosed with deep IM administration. At least 2.5 cm depth from the surface into the central aspect of the quadriceps or biceps femoris muscle, by angling the needle toward the femur. If the needle hits the femur, simply draws back slightly and then inject. The dose volume will be determined by the animals' body weight collected on the morning of dosing day. For repeated administration, the injection sites may be rotated to minimize tissue injury.

[1] = dog D1502 (third dog, c6), 96 hr
[2] = dog D1502 (third dog, c6), 120 hr
[3] = dog D1502 (third dog, c6), 144 hr
[4] = dog D1502 (third dog, c6), 192 hr
[5] = dog D1502 (third dog, c6), 216 hr

## C=C1CC[C@@]2(O)C3Cc4ccc(OC(=O)OCCCCCCCCCCC)c5c4[C@@]2(CCN3CC2CC2)[C@H]1O5 [Compound 3, (4aS,7aS,12bS)-3-(cyclopropylmethyl)-4a-hydroxy-7-methylene-2,3,4,4a,5,6,7,7a-octahydro-1H-4,12-methanobenzofuro[3,2-e]isoquinolin-9-yl undecyl carbonate]
Dog D1001, Day 1
  BT: cm/BT: 39.2° C./
Dog D1001, Day 2
  BT: 38.9 °C
Dog D1001, Day 3
  BT: 39.1 °C
Dog D1001, Day 4
  BT: 38.5 °C
Dog D1001, Day 5
  BT: 38.6 °C
Dog D1001, Day 6
  BT: 38.4 °C
Dog D1001, Day 7
  BT: 38.4 °C
Dog D1001, Day 8
  BT: 38.7 °C
Dog D1001, Day 9
  BT: 38.7 °C
Dog D1001, Day 10
  BT: 38.4 °C
Dog D1001, Day 11
  BT: 38.8 °C
Dog D1001, Day 12
  BT: 38.0 °C
Dog D1001, Day 13
  BT: 38.4 °C
Dog D1001, Day 15
  BT: 37.8 °C
Dog D1001, Day 17
  BT: BT: 38.3 °C
Dog D1001, Day 18
  BT: BT: 38.4 °C
Dog D1001, Day 19
  BT: BT: 38.3 °C
Dog D1001, Day 20
  BT: BT: 37.9 °C
Dog D1001, Day 21
  BT: BT: 38.6 °C
Dog D1001, Day 22
  BT: BT: 38.8 °C
Dog D1001, Day 23
  BT: BT: 38.3 °C
Dog D1001, Day 24
  BT: BT: 38.5 °C
Dog D1001, Day 25
  BT: BT: 38.4 °C
Dog D1001, Day 26
  BT: BT: 38.2 °C
Dog D1001, Day 27
  BT: BT: 38.4 °C
Dog D1002, Day 1
  BT: 39.1 °C
Dog D1002, Day 2
  BT: 39.3 °C
Dog D1002, Day 3
  BT: 39.3 °C
Dog D1002, Day 4
  BT: 38.5 °C
Dog D1002, Day 5
  BT: 38.7 °C
Dog D1002, Day 6
  BT: 38.8 °C
Dog D1002, Day 7
  BT: 38.6 °C
Dog D1002, Day 8
  BT: 38.7 °C
Dog D1002, Day 9
  BT: 38.3 °C
Dog D1002, Day 10
  BT: calf/BT: 38.3 °C
Dog D1002, Day 11
  BT: 38.9 °C
Dog D1002, Day 12
  BT: 38.5 °C
Dog D1002, Day 13
  BT: 38.8 °C
Dog D1002, Day 14
  BT: 38.3 °C
Dog D1002, Day 15
  BT: 37.8 °C
Dog D1002, Day 17
  BT: 38.7 °C
Dog D1002, Day 18
  BT: 38.8 °C
Dog D1002, Day 19
  BT: 38.7 °C
Dog D1002, Day 20
  BT: 38.6 °C
Dog D1002, Day 21
  BT: BT: 38.5 °C
Dog D1002, Day 22
  BT: BT: 39.3 °C
Dog D1002, Day 23
  BT: BT: 38.8 °C
Dog D1002, Day 24
  BT: BT: 39.1 °C
Dog D1002, Day 25
  BT: BT: 38.6 °C
Dog D1002, Day 26
  BT: BT: 38.6 °C
Dog D1002, Day 27
  BT: cm/BT: 38.6 °C
Dog D1003, 8 hr
  Clinical observation, R-TA: Swelling 4 * 3
Dog D1003, Day 1
  BT: side/BT: 39.6 °C
Dog D1003, Day 2
  BT: side/BT: 39.7 °C
Dog D1003, Day 3
  BT: 39.2 °C
Dog D1003, Day 4
  BT: site/BT: 38.7 °C
Dog D1003, Day 5
  BT: 39.0 °C
Dog D1003, Day 6
  BT: 39.2 °C
Dog D1003, Day 7
  BT: 39.5 °C
Dog D1003, Day 8
  BT: 39.4 °C
Dog D1003, Day 9
  BT: 38.8 °C
Dog D1003, Day 10
  BT: 38.9 °C
Dog D1003, Day 11
  BT: swelling/BT: 39.4 °C
Dog D1003, Day 12
  BT: swelling/BT: 39.3 °C
Dog D1003, Day 13
  BT: swelling/BT: 39.9 °C
Dog D1003, Day 15
  BT: swelling/BT: 39.4 °C
Dog D1003, Day 17
  BT: swelling/BT: 39.5 °C
Dog D1003, Day 18
  BT: swelling/BT: 39.5 °C
Dog D1003, Day 19
  BT: swelling/BT: 39.4 °C
Dog D1003, Day 21
  BT: swelling/BT: 39.3 °C
Dog D1003, Day 22
  BT: swelling/BT: 39.9 °C
Dog D1003, Day 24
  BT: BT: 39.5 °C
Dog D1003, Day 25
  BT: BT: 39.8 °C
Dog D1003, Day 26
  BT: BT: 39.3 °C
Dog D1003, Day 27
  BT: BT: 38.9 °C

## C=C1CC[C@@]2(O)C3Cc4ccc(OCOC(=O)OCCCCCCCCCC)c5c4[C@@]2(CCN3CC2CC2)[C@H]1O5 [Compound 35, (((4aS,7aS,12bS)-3-(cyclopropylmethyl)-4a-hydroxy-7-methylene-2,3,4,4a,5,6,7,7a-octahydro-1H-4,12-methanobenzofuro[3,2-e]isoquinolin-9-yl)oxy)methyl decyl carbonate]
Dog D1501, 24 hr
  Clinical observation, R-TA: Red spots at groin
Dog D1501, 48 hr
  Clinical observation, R-TA: Red spots at groin
Dog D1501, 72 hr
  BT: at groin/BT: 39.1 °C
  Clinical observation, R-TA: Swelling; also recorded: Red spots
Dog D1501, 96 hr
  BT: at groin/BT: 39.0 °C
  Clinical observation, R-TA: Swelling; also recorded: Red spots
Dog D1501, 120 hr
  BT: at groin/BT: 39.1 °C
  Clinical observation, R-TA: Swelling; also recorded: Red spots
Dog D1501, 144 hr
  BT: groin/BT: 38.7 °C
Dog D1501, 192 hr
  BT: groin/BT: 38.2 °C
Dog D1501, 216 hr
  BT: groin/BT: 38.6 °C
  Clinical observation, R-TA: redness/Red spots at
Dog D1501, 240 hr
  BT: groin/BT: 38.2 °C
  Clinical observation, R-TA: induration
Dog D1501, 264 hr
  BT: groin/BT: 38.0 °C
  Clinical observation, R-TA: induration
Dog D1501, 288 hr
  BT: groin/BT: 38.4 °C
  Clinical observation, R-TA: induration
Dog D1501, […]
  BT: groin/BT: 38.9 °C
Dog D1501, day 13
  Clinical observation, R-TA: induration
Dog D1501, day 14
  Clinical observation, R-TA: induration
Dog D1501, day 15
  Clinical observation, R-TA: induration
Dog D1501, day 16
  Clinical observation, R-TA: induration
Dog D1501, day 17
  Clinical observation, R-TA: induration
Dog D1501, day 18
  Clinical observation, R-TA: induration
Dog D1502 (third dog, c6), 24 hr
  Clinical observation, R-TA: Slight swelling/red
Dog D1502 (third dog, c6), 48 hr
  Clinical observation, R-TA: Slight swelling/red
Dog D1502 (third dog, c6), 72 hr
  BT: leg/BT: 39.3 °C
[1]
  BT: leg/BT: 39.3 °C
  Clinical observation, R-TA: induration and red
[2]
  BT: BT: 39.4 °C
  Clinical observation, R-TA: induration and red
[3]
  BT: BT: 39.0 °C
  Clinical observation, R-TA: induration and red
[4]
  BT: at calf/BT: 39.2 °C
  Clinical observation, R-TA: Obvious swelling
[5]
  BT: calf/BT: 39.2 °C
  Clinical observation, R-TA: red spot
Dog D1502 (third dog, c6), 240 hr
  BT: calf/BT: 38.9 °C
Dog D1502 (third dog, c6), 264 hr
  BT: 38.7 °C
Dog D1502 (third dog, c6), 288 hr
  BT: 38.7 °C
Dog D1502 (third dog, c6), […]
  BT: at calf/BT: 39.3 °C
Dog D1502 (third dog, c6), day 20
  Clinical observation, R-TA: Not obvious
Dog D1502, 72 hr
  BT: 39.6 °C
  Clinical observation, R-TA: red
Dog D1502, 96 hr
  BT: 38.9 °C
Dog D1502, 120 hr
  BT: 39.6 °C
Dog D1502, 144 hr
  BT: 38.9 °C
  Clinical observation, R-TA: redness
Dog D1502, 192 hr
  BT: BT: 38.7 °C
Dog D1502, 216 hr
  BT: BT: 39.2 °C
Dog D1502, 240 hr
  BT: BT: 38.6 °C
Dog D1502, 264 hr
  BT: BT: 38.4 °C
Dog D1502, 288 hr
  BT: BT: 38.6 °C
Dog D1502, […]
  BT: 39.9 °C
